Series [1] relates to interleukin-1β production. Kind of series: Inhibitory activity against interleukin-1β production (LPS-stimulated HL-60 cells, ELISA). The format is cell-based. The following applies: Homo sapiens, 72 h, lipopolysaccharide 10 μg/mL, 3 days, Table 1, read-out: IL-1β production inhibiting activity IC50. Here is the method:
Inhibitory Activity Against Interleukin-1β Production
HL-60 cells were cultured for 4 days until confluence on RPMI 1640 medium with 10% fetal bovine serum (FBS) added thereto. The medium was centrifuged. The supernatant was discarded, and the cells were then suspended at 1×10^6 cells/mL on RPMI 1640 medium with 3% FBS, and lipopolysaccharide was added to give a final concentration of 10 μg/mL. The culture was inoculated at 1 mL/well to a 24-well plate. A sample compound was added at 1 μL/well, followed by culturing for 3 days. Three days later, the amount of interleukin-1β in each culture was determined by ELISA. Each IC50 value was determined by a comparison in yield with a control to which no test sample was added.
Background: An ELISA detects its analyte on a solid surface through an enzyme-linked reagent.

Series [2] is described as follows: Oral absorbability test on rats and/or mice. In kind it is in vivo. The following applies: orally administered to mice and/or rats, as in Experiment 3, FIGS. 2 to 6. Here is the method: (§1) The compound of Example 83 and the comparative compound 3 were suspended at 2 mg/mL with a 0.5% MC solution in mortars, respectively, and were orally administered to male SD rats at 10 mg/5 mL/kg. Upon elapsed time of 0.25, 0.5, 1, 2, 4, 6 and 8 hours after the administration, blood samples were collected and then centrifuged to provide plasma samples. The plasma levels of the respective compounds were determined by HPLC. […] The compound of Example 83 is, therefore, useful as an orally dosable medicine.
In a similar manner as in Experiment 3, test compounds of Examples 23, 25, 143, 193, 245, 246, 247, 248 and 249 were orally administered to mice and/or rats to test their oral absorbability.

Series [3] in a line: Water solubility test. The format is physicochemical. The following applies: for Solubility (%): purified water, from amount of water required for dissolution. Here is the method: Each sample compound was weighed in the amount shown in Table 3, to which purified water was added in 0.05 mL aliquots. The solubility (%) of the compound was determined based on the amount of water required for its dissolution.

Series [4] is described as follows: Oral absorbability test on rats. The format is in vivo. The following applies: male SD rats, oral 10 mg/5 mL/kg, suspension in 0.5% MC, 0.25-8 hours, FIG. 1. Here is the method: as §1

Molecules are shown by their SMILES. Bounds are passed on as bounds.

The results in this text go back to US6861428B2, “Water-soluble phenylpyridazine compounds and compositions containing the same” (Kowa Co., Ltd., priority 2001, dated 2005).

`COc1ccc(-c2cc(CN)c(=O)n(CC3CC3)n2)cc1F.Cl` [Example 25, 4-aminomethyl-2-cyclopropylmethyl-6-(3-fluoro-4-methoxyphenyl)-2H-pyridazin-3-one hydrochloride]: the IC50 in series [1] was 2740 nM. Further, in series [2], the Oral absorbability entry was “good absorbability”. For the same compound, the “Solubility (%)” value in series [3] is listed as 0.4%.
In the case of `Cc1cc(-c2cc(CN3CCN(C)CC3)c(=O)n(CC(C)C)n2)ccc1F.Cl.Cl` [Example 83, 6-(4-fluoro-3-methylphenyl)-2-isobutyl-4-(4-methyl-1-piperazinyl)methyl-2H-pyridazin-3-one dihydrochloride], the IC50 in series [1] came to 270 nM. Further, the “Oral absorption (plasma level by HPLC)” value in series [4] was “good absorption”.
For `Cc1cc(-c2cc(CN3CCN(C)CC3)c(=O)n(CC=Cc3ccc(Cl)cc3)n2)ccc1F.Cl.Cl` [Example 143, 2-(4-chlorocinnamyl)-6-(4-fluoro-3-methylphenyl)-4-(4-methyl-1-piperazinyl)methyl-2H-pyridazin-3-one dihydrochloride], the melting point was 229.7 to 243.3 °C (dec.). Further, the IC50 in series [1] is 8550 nM. Moreover, the Oral absorbability entry in series [2] is reported as “good absorbability”. Also, the “Solubility (%)” value in series [3] is listed as 10%.
As for `CNC(=O)c1cc(-c2ccc(OC)c(F)c2)nn(CC2CC2)c1=O` [compound 3, reference compound], the “Oral absorption (plasma level by HPLC)” value in series [4] was “no substantial absorption”. Moreover, in series [3] (100 mL purified water added), the “Dissolution in amount of added water” value is “(insoluble)”. Besides, in series [3], the “Solubility (%)” value is reported as less than 0.001%.

The term IC50 denotes the concentration at which inhibition is half-maximal. By melting point is commonly meant the temperature, or range, at which the solid turns liquid.
